According to ChEMBL document CHEMBL4619719, “A-ring and E-ring modifications of the cytotoxic alkaloid Luotonin A: Synthesis, computational and biological studies” (Bioorg Med Chem, 2020):
Active and inactive are the calls of the source. The rule behind the calls is not given here.

Assays:
HL-60 [1] = experiment: Antiproliferative activity against human HL60 cells assessed as reduction in cell viability at 20 uM measured after 72 hrs by MTT assay relative to control; format: functional
SW480 [2] = experiment: Antiproliferative activity against human SW480 cells assessed as reduction in cell viability at 20 uM measured after 72 hours by MTT assay relative to control; format: functional
HL-60 [3] = experiment: Induction of apoptosis in human HL60 cels assessed as activation of caspases preincubated for 24 hrs followed by addition of fluorescent pan-caspase substrate incubated for 90 mins by fluorescence based assay; format: functional, cell-based
[4] = target: T1, DNA topoisomerase 1 (Homo sapiens) (UniProt P11387); experiment: Inhibition of human TOP1 assessed as decrease in relaxation of supercoiled DNA using supercoiled plasmid DNA pGEM1 as substrate at 1 uM preincubated for 30 mins by SDS gel electrophoresis method; design: scale not given: the % may be the effect or the level left
T1 sequence (whole entry): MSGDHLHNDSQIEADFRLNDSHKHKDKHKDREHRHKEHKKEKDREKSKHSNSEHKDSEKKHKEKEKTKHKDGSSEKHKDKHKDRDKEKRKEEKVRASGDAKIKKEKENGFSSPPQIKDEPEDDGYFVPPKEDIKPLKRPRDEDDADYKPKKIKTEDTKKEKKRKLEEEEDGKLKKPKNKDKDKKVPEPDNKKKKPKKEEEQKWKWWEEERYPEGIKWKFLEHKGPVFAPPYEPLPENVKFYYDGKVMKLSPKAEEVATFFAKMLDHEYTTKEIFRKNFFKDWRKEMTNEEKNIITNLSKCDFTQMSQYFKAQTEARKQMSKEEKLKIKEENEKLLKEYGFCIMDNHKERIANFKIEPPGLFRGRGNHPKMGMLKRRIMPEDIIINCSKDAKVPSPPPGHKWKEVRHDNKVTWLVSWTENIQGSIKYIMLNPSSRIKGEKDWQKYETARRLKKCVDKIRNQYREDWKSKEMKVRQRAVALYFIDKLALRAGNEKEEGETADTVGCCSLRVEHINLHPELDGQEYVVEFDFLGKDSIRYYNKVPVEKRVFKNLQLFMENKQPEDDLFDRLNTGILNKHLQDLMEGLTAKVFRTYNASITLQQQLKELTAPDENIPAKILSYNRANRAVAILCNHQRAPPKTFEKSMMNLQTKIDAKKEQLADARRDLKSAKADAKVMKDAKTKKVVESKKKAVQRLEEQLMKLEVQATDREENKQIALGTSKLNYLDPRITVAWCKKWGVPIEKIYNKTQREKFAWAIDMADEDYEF

SW480 [5] = experiment: Induction of cell cycle arrest in human SW480 cells assessed as S phase cell cycle arrest at 2 to 4 uM incubated for 72 hrs by propidium iodide staining based flow cytometric analysis; format: functional
[6] = target: T1, DNA topoisomerase 1 (Homo sapiens); experiment: Inhibition of human TOP1 assessed as decrease in relaxation of supercoiled DNA using supercoiled plasmid DNA pGEM1 as substrate at 10 uM preincubated for 30 mins by SDS gel electrophoresis method; design: scale not given: the % may be the effect or the level left
HL-60 [7] = experiment: Antiproliferation activity against human HL60 cells assessed as reduction in cell viability measured after 72 hrs by MTT assay; format: functional, cell-based; settings: HL-60, 72 h
SW480 [8] = experiment: Antiproliferation activity against human SW480 cells assessed as reduction in cell viability measured after 72 hours by MTT assay; format: functional, cell-based; settings: SW480, 72 h
SW480 [9] = experiment: Induction of cell cycle arrest in human SW480 cells assessed as accumulation in G2/M phase at 2 to 4 uM for 72 hrs by propidium iodide staining based flow cytometric analysis; format: functional
[10] = target: T1, DNA topoisomerase 1 (Homo sapiens); experiment: Inhibition of human TOP1 assessed as decrease in relaxation of supercoiled DNA using supercoiled plasmid DNA pGEM1 as substrate at 100 uM preincubated for 30 mins by SDS gel electrophoresis method; design: scale not given: the % may be the effect or the level left
SW480 [11] = experiment: Induction of apoptosis in human SW480 cells assessed as activation of caspases preincubated for 72 hrs followed by addition of fluorescent pan-caspase substrate incubated for 90 mins by fluorescence based assay; format: functional, cell-based
SW480 [12] = experiment: Induction of cell death in human SW480 cells assessed as accumulation of large cells at 2 uM incubated for 72 hrs by Hoechst […] staining based fluorescence microscopic method; format: functional
SW480 [13] = experiment: Induction of cell death in human SW480 cells assessed as accumulation of large nuclei at 2 uM incubated for 72 hrs by Hoechst […] staining based fluorescence microscopic method; format: functional
HL-60 [14] = experiment: Induction of cell cycle arrest in human HL60 cells assessed as accumulation in G2/M phase at 2 to 4 uM 24 hrs by propidium iodide staining based flow cytometric analysis; format: functional
HL-60 [15] = experiment: Induction of cell cycle arrest in human HL60 cells assessed as accumulation of cells at G2 phase incubated for 24 hrs by propidium iodide staining based flow cytometric analysis; format: functional
HL-60 [16] = experiment: Induction of cell cycle arrest in human HL60 cells assessed as accumulation of cells at S phase at 20 to 35 nM incubated for 24 hrs by propidium iodide staining based flow cytometric analysis; format: functional
SW480 [17] = experiment: Induction of cell death in human SW480 cells assessed as accumulation of large cells incubated for 72 hrs by Hoechst […] staining based fluorescence microscopic method; format: functional
SW480 [18] = experiment: Induction of cell cycle arrest in human SW480 cells assessed as accumulation of cells at S phase at 20 to 35 nM incubated for 72 hrs by propidium iodide staining based flow cytometric analysis; format: functional
SW480 [19] = experiment: Induction of cell death in human SW480 cells assessed as accumulation of large nuclei incubated for 72 hrs by Hoechst […] staining based fluorescence microscopic method; format: functional
HL-60 [20] = experiment: Induction of cell cycle arrest in human HL60 cells assessed as accumulation of cells at G2 phase at 20 to 35 nM incubated for 24 hrs by propidium iodide staining based flow cytometric analysis; format: functional

Row | Compound | fold change (FC) (HL-60 [1]) | fold change (FC) (SW480 [2]) | Activity [4] [%] | Activity [6] [%] | Activity [10] [%] | other results
1 | O=c1c2ccccc2nc2n1Cc1cc3cccc(F)c3nc1-2 | 0.61 | 0.88 | – | – | – | –
2 | COc1ccc2nc3c(cc2c1)Cn1c-3nc2ccc(Br)cc2c1=O | 0.82 | inactive | – | – | – | –
3 | COc1cc(OC)c2cc3c(nc2c1)-c1nc2ccc(Br)cc2c(=O)n1C3 | inactive | 0.89 | – | – | – | –
4 | Nc1ccc2nc3n(c(=O)c2c1)Cc1cc2cccc(N)c2nc1-3 | 0.01 | 0.31 | 2.6 | 9 to 9.2 | 12.6 to 13 | Activity (HL-60 [3]): Active; Activity (SW480 [5]): inactive; IC50 (HL-60 [7]): 820 nM; IC50 (SW480 [8]): 2030 nM; Activity (SW480 [9]): Active; Activity (SW480 [11]): inactive; Activity (SW480 [12]): Active; Activity (SW480 [13]): Active; Activity (HL-60 [14]): Active
5 | O=c1c2ccccc2nc2n1Cc1cc3ccccc3nc1-2 [LUOTONIN A] | 0.83 | 0.91 | 2.1 | 2.6 | 16.3 | –
6 | Nc1ccc2nc3c(cc2c1)Cn1c-3nc2ccccc2c1=O | 0.26 | 0.24 | – | – | – | –
7 | COc1cc(OC)c2cc3c(nc2c1)-c1nc2ccc(I)cc2c(=O)n1C3 | 0.83 | 0.99 | – | – | – | –
8 | CC[C@@]1(O)C(=O)OCc2c1cc1n(c2=O)Cc2cc3ccccc3nc2-1 [CAMPTOTHECIN] | 0 | 0.3 | 2.1 | 6 | 26.3 | Activity (HL-60 [15]): Dose-dependent effect; Activity (HL-60 [16]): Active; Activity (SW480 [17]): inactive; Activity (SW480 [18]): Active; IC50 (HL-60 [7]): 18 nM; IC50 (SW480 [8]): 210 nM; Activity (SW480 [19]): inactive; Activity (HL-60 [20]): inactive
9 | COc1cc(OC)c2cc3c(nc2c1)-c1nc2ccc(N)cc2c(=O)n1C3 | 0.73 | 0.98 | – | – | – | –
10 | Nc1cccc2cc3c(nc12)-c1nc2ccccc2c(=O)n1C3 | 0.02 | 0.58 | – | – | – | –
